Assay: Rate of degradation/transformation of compounds in solution (half-life for the transformation to the active moiety) at pH 2 and 7
Type: physicochemical
Details: water solution
Method: Rate of degradation/transformation of compounds
Half-life (mintues) for the
transformation to the active moiety
Also at neutral pH-values the degradation reaction proceeds rapidly, e.g. at pH=7 the half-life of degradation is between 10 minutes and 65 hours while at higher pH-values the stability in solution for most compounds is much better. The stability profile is similar in solid phase. The degradation is catalyzed by acid reacting substances. The acid labile compounds are stabilized in mixtures with alkaline reacting substances.

half-life (at pH = 2) | half-life (at pH = 7) | SMILES
11 min | 150 min | COC(=O)c1cc2nc([S+]([O-])Cc3ncccc3C)[nH]c2cc1C (centres unmarked)
5.4 min | 1700 min | Cc1cnc(C[S+]([O-])c2nc3cc(C)ccc3[nH]2)c(C)c1 (centres unmarked)
1.9 min | 122 min | COc1ccnc(C[S+]([O-])c2nc3cc(C(F)(F)F)ccc3[nH]2)c1 (centres unmarked)
2 min | 8.8 min | COc1ccnc(C[S+]([O-])c2nc3cc(C(F)(F)F)ccc3[nH]2)c1C (centres unmarked)
3.7 min | 1620 min | CCc1cnc(C[S+]([O-])c2nc3cc(OC)ccc3[nH]2)cc1Oc1ccccc1 (centres unmarked)
33 min |  | CCc1ccc2[nH]c([S+]([O-])Cc3nc4ccccc4n3C)nc2c1 (centres unmarked)
